This is an account of results in ChEMBL document CHEMBL1201862, “PubChem BioAssay data set” (2004).

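In this assay, cells in 96-well plates receive the compound at five concentrations for 48 hours. Endpoints are linearly interpolated between the surrounding concentrations. GI50 = concentration required for 50% inhibition of growth.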 Active and inactive are the calls of the source. No stated cut-off is given here; in the data, active = GI50 up to about 1.1 µM and inactive = higher.

Among the test systems are SNB-75; SK-MEL-28; SF-539; CAKI-1; A549; SK-MEL-5; HCT-116; SF-268; HCT-15; Malme-3M; M14; SK-MEL-2; ACHN; NCI-H226; SK-OV-3; A498; SF-295; TK-10; HL-60; NCI-H522.
Assay in all cases: NCI anticancer screen, dose series, 48 h

Take `O=C1C[C@@H]2[C@@H](C=CC23CCCC3)N1O`: the GI50 in the test on SNB-75, with SK-MEL-28, in the test on SF-539, in the test on CAKI-1, with A549 and with SK-MEL-5 was > 100 µM (inactive) throughout. Also, the GI50 with HCT-116 was > 100 µM (inactive); in the test with SF-268 it was > 100 µM (inactive); in the test on HCT-15, greater than 100 µM; in the test on Malme-3M, > 100 µM (inactive); with M14, > 100 µM (inactive); with SK-MEL-2, > 100 µM (inactive). Also, the GI50 in the test with ACHN, in the test on NCI-H226, with SK-OV-3, with A498, in the test with SF-295 and in the test with TK-10 was > 100 µM (inactive) throughout. For the same compound, the GI50 in the test on HL-60 and in the test on NCI-H522 was > 100 µM (inactive) in each case.

Take `CC1=C[C@@H]2[C@@H](CC(CO)=C[C@H]3[C@@H]4C(C)(C)[C@]4(OCC(C)C)[C@H](OCC(C)C)[C@@H](C)[C@]23O)C1=O`: the GI50 is 2.97 µM (inactive) in the test with SNB-75; 1.3 µM (inactive) in the test on SK-MEL-28; 0.975 µM (active) in the test on SF-539; 1.38 µM (inactive) with CAKI-1; 0.578 µM (active) with A549; 1.11 µM (active) with SK-MEL-5. The GI50 in the test with HCT-116 is 2.04 µM (inactive); in the test on SF-268, 3.43 µM (inactive); with HCT-15, 1.42 µM; in the test with Malme-3M it was 0.766 µM (active); in the test on M14 it was 1.51 µM (inactive); in the test with SK-MEL-2 it was 2.1 µM (inactive). Further, the GI50 was 1.23 µM (inactive) in the test with ACHN; 1.36 µM (inactive) in the test on NCI-H226; > 8.32 µM (inactive) in the test on SK-OV-3; 1.08 µM (active) in the test with A498; 0.92 µM (active) in the test on SF-295; 1.82 µM (inactive) in the test on TK-10. In addition, the GI50 with HL-60 was 0.495 µM (active); in the test on NCI-H522, 2.2 µM (inactive).

As to `N#Cc1c(N)nc(Nc2cccc3ccccc23)c(C#N)c1C#N`, the GI50 in the test on SNB-75 is 3.52 µM (inactive); in the test with SK-MEL-28 it was 3.75 µM (inactive); in the test with SF-539, 2.78 µM (inactive); in the test on CAKI-1 it was 6.25 µM (inactive); with A549, 5.71 µM (inactive); in the test on SK-MEL-5, 4.43 µM (inactive). Besides, the GI50 is 2.54 µM (inactive) in the test with HCT-116; 3.68 µM (inactive) in the test on SF-268; 4.17 µM in the test with HCT-15; > 10 µM (inactive) in the test on Malme-3M; 6.61 µM (inactive) in the test on M14; > 10 µM (inactive) in the test on SK-MEL-2. Besides, the GI50 in the test on ACHN was 4.78 µM (inactive); with NCI-H226, > 10 µM (inactive); with SK-OV-3, 3.94 µM (inactive); in the test with A498, 3.5 µM (inactive); in the test with SF-295 it was 3.4 µM (inactive); with TK-10, > 10 µM (inactive). Also, the GI50 in the test with HL-60 is 1.88 µM (inactive); in the test with NCI-H522, 2.9 µM (inactive).
